The results in this text go back to patent US20250230193A1, “CYCLIC COMPOUND HAVING SELECTIVE KRAS INHIBITORY EFFECT ON HRAS AND NRAS” (CHUGAI SEIYAKU KABUSHIKI KAISHA, priority 2022, published 2025).

Where a SMILES comes first, the peptide text is derived from it. Bridges are numbered along the chain shown (N, C = ends). [ ]: non-standard residue; d: D form. The star is where a group is joined. hPhe(3-Cl-4-CF3) = N[C@@H](CCc1ccc(C(F)(F)F)c(Cl)c1)C(=O)O; NPrPhe(4-CF3) = CCCN[C@@H](Cc1ccc(C(F)(F)F)cc1)C(=O)O; NMeGly(cPent) = CN[C@H](C(=O)O)C1CCCC1; NMeChg = CN[C@H](C(=O)O)C1CCCCC1; NMeD = CN[C@@H](CC(=O)O)C(=O)O; NMeL = CN[C@@H](CC(C)C)C(=O)O; Morpholide = C1CN(*)CCO1; Ac4c = NC1(C(=O)O)CCC1; NEtG = CCNCC(=O)O; Sar = CNCC(=O)O

The target in experiment [1] is GDP-bound HRAS wild-type protein (Homo sapiens, UniProt P01112). The experiment is described as follows: Binding to HRAS by surface plasmon resonance (SPR), Single Cycle Kinetics. The note with it: SPR; for HRAS/KRAS (ratio of KD value with respect to HRAS to KD value with respect to KRAS) / HRAS/KRAS (ratio of KD value for HRAS to KD value for KRAS): GDP-bound HRAS wild-type vs GDP-bound KRAS wild-type. In general terms: SPR reads the build-up and loss of mass on a sensor chip optically.

The target of experiment [2] is GDP-bound NRAS wild-type protein (Homo sapiens, UniProt P01111). The experiment is described as follows: Binding to NRAS by surface plasmon resonance (SPR), Single Cycle Kinetics. The following applies: SPR; for NRAS/KRAS (ratio of KD value with respect to NRAS to KD value with respect to KRAS) / NRAS/KRAS (ratio of KD value for NRAS to KD value for KRAS): GDP-bound NRAS wild-type vs GDP-bound KRAS wild-type.
GDP-bound NRAS wild-type protein, sequence (P01111 whole entry): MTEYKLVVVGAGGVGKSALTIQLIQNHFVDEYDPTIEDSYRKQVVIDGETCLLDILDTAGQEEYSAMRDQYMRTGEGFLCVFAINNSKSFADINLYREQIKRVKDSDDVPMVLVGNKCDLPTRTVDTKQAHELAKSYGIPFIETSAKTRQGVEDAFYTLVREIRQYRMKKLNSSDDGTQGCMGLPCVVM

GDP-bound HRAS wild-type protein, sequence (P01112 whole entry): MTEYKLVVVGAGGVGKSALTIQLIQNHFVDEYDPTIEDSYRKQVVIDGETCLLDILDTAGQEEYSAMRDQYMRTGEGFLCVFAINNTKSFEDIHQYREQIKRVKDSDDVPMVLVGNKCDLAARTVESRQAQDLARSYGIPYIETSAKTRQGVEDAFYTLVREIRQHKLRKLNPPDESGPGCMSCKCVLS

Turning to `CC[C@H](C)[C@@H]1NC(=O)[C@H](CC(C)C)N(C)C(=O)C[C@@H](C(=O)N2CCOCC2)N(C)C(=O)[C@H](C2CCCCC2)N(C)C(=O)C2(CCCC2)NC(=O)[C@@H]2CCCN2C(=O)[C@H](CCc2cc(F)c(C(F)(F)F)c(F)c2)NC(=O)CN(C)C(=O)[C@H](Cc2ccc(C(F)(F)F)cc2)N2CCCC[C@@H](C2=O)N(C)C(=O)CN(C)C1=O` [PP0567], the “HRAS/KRAS (ratio of KD value with respect to GDP-bound HRAS wild-type protein to KD value with respect to KRAS)” value in experiment [1] (KD ratio HRAS/KRAS) is “B (a compound having 3 or more and less than 10 is denoted as B)”. Besides, in experiment [2] (KD ratio NRAS/KRAS), the “NRAS/KRAS (ratio of KD value with respect to GDP-bound NRAS wild-type protein to KD value with respect to KRAS)” value was “B (a compound having 3 or more and less than 10 is denoted as B)”.

With `CCO[C@@H]1C[C@H]2C(=O)NC3(CCC3)C(=O)N(C)[C@@H](C3CCCC3)C(=O)N(C)[C@H](C(=O)N(C)C)CC(=O)N(C)[C@@H](CC)C(=O)N[C@@H]([C@@H](C)CC)C(=O)N(C)CC(=O)N(C)[C@H]3CCCCCN(C3=O)[C@@H](Cc3ccc(F)cc3OC)C(=O)N(C)CC(=O)N[C@@H](CCc3cc(F)c(C(F)(F)F)c(F)c3)C(=O)N2C1` [PP0914], the “HRAS/KRAS (ratio of KD value with respect to HRAS to KD value with respect to KRAS)” value in experiment [1] (KD ratio) was “B (a compound having 3 or more and less than 10 is denoted as B)”. Moreover, the “NRAS/KRAS (ratio of KD value with respect to NRAS to KD value with respect to KRAS)” value in experiment [2] (KD ratio) is “B (a compound having 3 or more and less than 10 is denoted as B)”.

Consider `CCC[C@H]1C(=O)N[C@@H]([C@@H](C)CC)C(=O)N(C)CC(=O)N(C)[C@H]2C/C=C\CCN(C2=O)[C@@H](Cc2ccc(C(F)(F)F)cc2)C(=O)N(C)CC(=O)N[C@@H](CCc2cc(F)c(C(F)(F)F)c(F)c2)C(=O)N(C)[C@@H](C)C(=O)NC2(CC(C)(C)C2)C(=O)N(C)[C@@H](C2CCCC2)C(=O)N(C)[C@H](C(=O)N(C)C)CC(=O)N1C` [PP1934], for which the “HRAS/KRAS (ratio of KD value for HRAS to KD value for KRAS)” value in experiment [1] (KD ratio) was “A (a compound having 10 or more and less than 20 is denoted as A)”. For the same molecule, in experiment [2] (KD ratio), the “NRAS/KRAS (ratio of KD value for NRAS to KD value for KRAS)” value is “A (a compound having 10 or more and less than 20 is denoted as A)”.

In the case of `CC[C@H](C)[C@@H]1NC(=O)[C@H](CC2CC2)N(C)C(=O)C[C@@H](C(=O)N(C)C)N(C)C(=O)[C@H](C2CCCC2)N(C)C(=O)C2(CCC2)N(C)C(=O)[C@@H]2CCCN2C(=O)[C@H](CCc2cc(F)c(C(F)(F)F)c(F)c2)NC(=O)CN(C)C(=O)[C@H](Cc2ccc(C)cc2)N2CC/C=C\C[C@@H](C2=O)N(C)C(=O)[C@@H]2CCCN2C1=O` [PP1798], in experiment [1] (KD ratio), the “HRAS/KRAS (ratio of KD value for HRAS to KD value for KRAS)” value was “B (a compound having 3 or more and less than 10 is denoted as B)”. Further, in experiment [2] (KD ratio), the “NRAS/KRAS (ratio of KD value for NRAS to KD value for KRAS)” value was “A (a compound having 10 or more and less than 20 is denoted as A)”.

`CCCN1C(=O)CN(C)C(=O)CN(CC)C(=O)[C@H]([C@@H](C)CC)NC(=O)[C@H](CC(C)C)N(C)C(=O)C[C@@H](C(=O)N(C)C)NC(=O)[C@H](C2CCCC2)N(C)C(=O)C2(CCC2)NC(=O)[C@@H]2CCCN2C(=O)[C@H](CCc2ccc(C(F)(F)F)c(Cl)c2)NC(=O)CN(C)C(=O)[C@@H]1Cc1ccc(C(F)(F)F)cc1` [PP0368] ([NMeL]I[NEtG][Sar][NPrPhe(4-CF3)][Sar][hPhe(3-Cl-4-CF3)]P[Ac4c][NMeGly(cPent)]D-NMe2; lactam N-11): the “HRAS/KRAS (ratio of KD for GDP-bound HRAS wild-type to KD for KRAS)” value in experiment [1] (KD ratio HRAS/KRAS) is “B (a compound having 3 or more and less than 10 is denoted as B)”. In addition, the “NRAS/KRAS (ratio of KD for GDP-bound NRAS wild-type to KD for KRAS)” value in experiment [2] (KD ratio NRAS/KRAS) is “B (a compound having 3 or more and less than 10 is denoted as B)”.

With `CCO[C@@H]1C[C@H]2C(=O)NC3(CCC3)C(=O)N(C)[C@@H](C3CCCC3)C(=O)N(C)[C@H](C(=O)N(C)CC)CC(=O)N(C)[C@@H](C3CCC3)C(=O)N[C@@H]([C@@H](C)CC)C(=O)N(C)CC(=O)N(C)[C@H]3C/C=C\CCN(C3=O)[C@@H](Cc3ccc(C(F)(F)F)cc3)C(=O)N(C)CC(=O)N[C@@H](CCc3cc(F)c(C(F)(F)F)c(F)c3)C(=O)N2C1` [PP1996], the “HRAS/KRAS (ratio of KD value for HRAS to KD value for KRAS)” value in experiment [1] (KD ratio) was “B (a compound having 3 or more and less than 10 is denoted as B)”. Also, the “NRAS/KRAS (ratio of KD value for NRAS to KD value for KRAS)” value in experiment [2] (KD ratio) was “A (a compound having 10 or more and less than 20 is denoted as A)”.

For `CCO[C@@H]1C[C@H]2C(=O)NC3(CCC3)C(=O)N(C)[C@@H](C3CCCC3)C(=O)N(CC)[C@H](C(=O)N(C)C)CC(=O)N(C)[C@@H](CC)C(=O)N[C@@H]([C@@H](C)CC)C(=O)N(C)CC(=O)N(C)[C@H]3CCCCN(C3=O)[C@@H](Cc3ccc(C(F)(F)F)cc3)C(=O)N(C)CC(=O)N[C@@H](CCc3cc(F)c(C(F)(F)F)c(F)c3)C(=O)N2C1` [PP0643], in experiment [1] (KD ratio HRAS/KRAS), the “HRAS/KRAS (ratio of KD value with respect to GDP-bound HRAS wild-type protein to KD value with respect to KRAS)” value is “B (a compound having 3 or more and less than 10 is denoted as B)”. For the same molecule, the “NRAS/KRAS (ratio of KD value with respect to GDP-bound NRAS wild-type protein to KD value with respect to KRAS)” value in experiment [2] (KD ratio NRAS/KRAS) was “C (A compound having a KD ratio of 0.1 or more and less than 3 is denoted as C)”.

On to `CCO[C@@H]1C[C@H]2C(=O)NC3(CC(C)(C)C3)C(=O)N(C)[C@@H](C(CC)CC)C(=O)N(C)[C@H](C(=O)N(C)C)CC(=O)N(C)[C@@H](C(C)C)C(=O)N[C@@H]([C@@H](C)CC)C(=O)N(C)CC(=O)N(C)[C@H]3C/C=C\CCN(C3=O)[C@@H](Cc3ccc(C(F)(F)F)cc3)C(=O)N(C)CC(=O)N[C@@H](CCc3ccc(Cl)c(Cl)c3)C(=O)N2C1` [PP2181], for which the “HRAS/KRAS (ratio of KD value with respect to HRAS to KD value with respect to KRAS)” value in experiment [1] is “A (a compound having 10 or more and less than 20 is denoted as A)”. Also, in experiment [2], the “NRAS/KRAS (ratio of KD value with respect to NRAS to KD value with respect to KRAS)” value is “AA (a compound having 20 or more is denoted as AA)”.

`CCCN1C(=O)CN(C)C(=O)CN(C)C(=O)[C@H]([C@@H](C)CC)NC(=O)[C@H](CC(C)C)N(C)C(=O)C[C@@H](C(=O)N2CCOCC2)N(C)C(=O)[C@H](C2CCCCC2)N(C)C(=O)C2(CCC2)NC(=O)[C@@H]2CCCN2C(=O)[C@H](CCc2ccc(C(F)(F)F)c(Cl)c2)NC(=O)CN(C)C(=O)[C@@H]1Cc1ccc(C(F)(F)F)cc1` [PP1928] ([NMeL]I[Sar][Sar][NPrPhe(4-CF3)][Sar][hPhe(3-Cl-4-CF3)]P[Ac4c][NMeChg][NMeD]-Morpholide; lactam N-11): in experiment [1] (KD ratio), the “HRAS/KRAS (ratio of KD value for HRAS to KD value for KRAS)” value was “B (a compound having 3 or more and less than 10 is denoted as B)”. For the same molecule, the “NRAS/KRAS (ratio of KD value for NRAS to KD value for KRAS)” value in experiment [2] (KD ratio) was “B (a compound having 3 or more and less than 10 is denoted as B)”.

Take `CC[C@H](C)[C@@H]1NC(=O)[C@H](CC(C)C)N(C)C(=O)C[C@@H](C(=O)N2CCOCC2)N(C)C(=O)[C@H](C2CCCC2)N(C)C(=O)C2(CCCCC2)NC(=O)[C@@H]2CCCN2C(=O)[C@H](CCc2cc(F)c(C(F)(F)F)c(F)c2)NC(=O)CN(C)C(=O)[C@H](Cc2ccc(C(F)(F)F)cc2)N2CCCCC[C@@H](C2=O)N(C)C(=O)CN(C)C1=O` [PP0498]: the “HRAS/KRAS (ratio of KD value with respect to GDP-bound HRAS wild-type protein to KD value with respect to KRAS)” value in experiment [1] (KD ratio HRAS/KRAS) was “B (a compound having 3 or more and less than 10 is denoted as B)”. Moreover, in experiment [2] (KD ratio NRAS/KRAS), the “NRAS/KRAS (ratio of KD value with respect to GDP-bound NRAS wild-type protein to KD value with respect to KRAS)” value is “B (a compound having 3 or more and less than 10 is denoted as B)”.

On to `CC[C@H](C)[C@@H]1NC(=O)[C@H](C(C)C)N(C)C(=O)C[C@@H](C(=O)N(C)CC)N(C)C(=O)[C@H](C2CCCC2)N(C)C(=O)C2(CC(C)(C)C2)NC(=O)[C@@H]2C[C@H](C)CN2C(=O)[C@H](CCc2cc(F)c(C(F)(F)F)c(F)c2)NC(=O)CN(C)C(=O)[C@H](Cc2ccc(C(F)(F)F)cc2)N2CC/C=C\C[C@@H](C2=O)N(C)C(=O)CN(C)C1=O` [PP1976], for which, in experiment [1] (KD ratio), the “HRAS/KRAS (ratio of KD value for HRAS to KD value for KRAS)” value is “A (a compound having 10 or more and less than 20 is denoted as A)”. Further, in experiment [2] (KD ratio), the “NRAS/KRAS (ratio of KD value for NRAS to KD value for KRAS)” value is listed as “AA (a compound having 20 or more is denoted as AA)”.
